Results from patent US12048751B2, “Compositions and methods for assessing gut function” (MediBeacon Inc., priority 2013, dated 2024).

Assays:
[1] = Plasma concentration vs. time after single intravenous and oral dose (IV and oral clearance); type: in vivo, Sprague-Dawley rats; conditions: rats having "normal" gut function; single dose given intravenously and orally (FIG. 3)
Description: (§1) Example 1 may be categorized as fluorescent challenge molecule is not substantially absorbed by a healthy gut.

[2] = Light absorption and emission maxima of the fluorescent challenge molecule; type: physicochemical
Description: as §1
Example 2 may be categorized as fluorescent challenge molecule is not substantially absorbed by a healthy gut as the molecular weight is relatively high (344 g/mol).
(§2) Example 3 may be categorized as fluorescent challenge molecule that is substantially absorbed by a healthy gut as the molecular weight is relatively low (198 g/mol).

[3] = Clearance from the body followed by fluorescence signal, with and without ligated kidneys; type: in vivo; conditions: for clearance pathway from the body: fluorescence signal over time
Description: as §2

oral bioavailability [1] | light absorption maximum [2] | light emission maximum [2] | clearance pathway from the body [3] | fluorescence signal when the kidneys are ligated ([3]; kidneys ligated, no excretion pathway) | Structure (SMILES) | clearance pathway from the body ([3]; listed as Example Compound 3)
very little | 445 nm | 560 nm |  |  | Nc1nc(C(=O)N[C@H](CO)C(=O)O)c(N)nc1C(=O)N[C@H](CO)C(=O)O [Example 1, 3,6-diamino-2,5-bis{N-[(1R)-1-carboxy-2-hydroxyethyl]carbamoyl}pyrazine] | 
 | 486 nm | 600 nm |  |  | NC(=O)c1nc(NCC(O)CO)c(C(N)=O)nc1NCC(O)CO (stereo not shown) [Example 2, 3,6-N,N′-bis(2,3-dihydroxypropyl)-2,5-pyrazinedicarboxamide] | 
 | 396 nm | 536 nm | clears from the body by the renal system | stays elevated | Nc1nc(C(=O)O)c(N)nc1C(=O)O [Example 3, 3,6-diaminopyrazine-2,5-dicarboxylic Acid] | clears from the body via the renal system
